Laboratory results taken from patent US20250195521A1 (Revolution Medicines, Inc., priority 2020, published 2025).

Key:
KRAS G13D = KRAS G13D (Homo sapiens (Human), UniProt P01116+P62937, G13D); experiment: Ras-Raf disruption/FRET/MOA assay (BRAF RBD, Cyclophilin A); format: biochemical; settings: read-out: KRAS G13D FRET data IC50
Outline: (§1)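 TR-FRET readout: anti-His Eu-W1024 (10 nM) and anti-GST allophycocyanin (50 nM) added after 3 h, 25° C compound incubation, then 1.5 h more. Decrease in FRET ratio versus DMSO wells marks Ras:RAF disruption; IC50 reported.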

KRAS G12D = KRAS G12D (Homo sapiens (Human), UniProt P01116+P62937, G12D); experiment: as above; format: biochemical; settings: read-out: KRAS G12D FRET IC50
Outline: as §1

KRAS G12V = KRAS G12V (Homo sapiens (Human), UniProt P01116+P62937, G12V); experiment: as above; format: biochemical; settings: read-out: KRAS G12V FRET IC50
Outline: as §1

KRAS G13C = KRAS G13C (Homo sapiens (Human), UniProt P01116+P62937, G13C); experiment: as above; format: biochemical; settings: read-out: KRAS G13C FRET IC50
Outline: as §1

NRAS G12C = NRAS G12C (Homo sapiens (Human), UniProt P01111+P62937, G12C); experiment: as above; format: biochemical; settings: read-out: NRAS G12C FRET data IC50
Outline: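 First, 25 μM Cyclophilin A, 12.5 nM His6-Ras-GMPPNP and 50 nM GST-BRAF RBD are mixed with diluted compound at pH 7.3. Next, 3 h at 25° C. Then 10 nM anti-His Eu-W1024 plus 50 nM anti-GST allophycocyanin for 1.5 h before TR-FRET reading.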

KRAS WT = KRAS WT (Homo sapiens (Human), UniProt P01116+P62937); experiment: as above; format: biochemical; settings: read-out: KRAS WT FRET data IC50
Outline: as §1

KRAS G12S = KRAS G12S (Homo sapiens (Human), UniProt P01116+P62937, G12S); experiment: as above; format: biochemical; settings: read-out: KRAS G12S FRET IC50
Outline: as §1

KRAS G12C = KRAS G12C (Homo sapiens (Human), UniProt P01116+P62937, G12C); experiment: as above; format: biochemical; settings: read-out: KRAS G12C FRET IC50
Outline: as §1

[1] = system: NCI-H358 cells (K-Ras G12C); experiment: CellTiter-Glo cell viability, NCI-H358; format: cell-based, human; settings: Homo sapiens, NCI-H358, 120 h, K-Ras G12C, 5-day treatment; read-out: H358 Cell Viability IC50
Outline: (§2)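 Compounds were dispensed directly onto seeded cells and incubated until day 5, then plates were equilibrated at room temperature for about 30 min before CellTiter-Glo luminescence readout. Signals were normalized as (sample/average DMSO)×100 and fitted with a four-parameter logistic model.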

[2] = system: Capan-1 cells (K-Ras G12V); experiment: CellTiter-Glo cell viability, Capan-1; format: cell-based, human; settings: Homo sapiens, CAPAN-1, 120 h, K-Ras G12V, 5-day treatment; read-out: Capan-1 Cell Viability IC50
Outline: as §2

NCI-H358 (K-Ras G12C) = experiment: CellTiter-Glo cell viability assay, NCI-H358; format: cell-based, human; settings: Homo sapiens, NCI-H358, 120 h, 5-day treatment; read-out: H358 Cell Viability assay data (K-Ras G12C, IC50)
Outline: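 NCI-H358 cells were treated with test compounds dispensed directly into the assay wells and incubated until day 5. Viability was then read by CellTiter-Glo luminescence after a ~30 min room-temperature equilibration, normalized to the DMSO average (×100), and fit with a four-parameter logistic curve.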

Sequence of NRAS G12C (P01111 whole entry G12C): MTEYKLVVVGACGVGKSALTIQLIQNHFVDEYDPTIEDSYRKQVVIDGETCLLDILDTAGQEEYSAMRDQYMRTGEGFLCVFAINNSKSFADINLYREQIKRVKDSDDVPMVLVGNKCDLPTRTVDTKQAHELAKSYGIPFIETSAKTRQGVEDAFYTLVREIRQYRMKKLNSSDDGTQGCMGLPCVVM
Sequence of NRAS G12C (P62937 whole entry): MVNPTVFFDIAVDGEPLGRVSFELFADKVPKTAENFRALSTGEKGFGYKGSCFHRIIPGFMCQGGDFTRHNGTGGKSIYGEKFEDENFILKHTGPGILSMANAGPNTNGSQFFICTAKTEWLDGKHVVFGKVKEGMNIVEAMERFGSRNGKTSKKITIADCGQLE
Sequence of KRAS G12S (P01116 other isoform, or with tags, fused parts or gaps G12S): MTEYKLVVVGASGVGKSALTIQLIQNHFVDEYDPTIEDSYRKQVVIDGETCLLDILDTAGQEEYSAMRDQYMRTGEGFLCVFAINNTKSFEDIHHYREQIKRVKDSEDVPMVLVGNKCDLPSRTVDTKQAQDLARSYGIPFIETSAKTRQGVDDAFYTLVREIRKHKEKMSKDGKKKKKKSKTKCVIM
Sequence of KRAS G12S (P62937 whole entry): as the sequence (P62937 whole entry) above
Sequence of KRAS G12C (P01116-2 other isoform, or with tags, fused parts or gaps G12C): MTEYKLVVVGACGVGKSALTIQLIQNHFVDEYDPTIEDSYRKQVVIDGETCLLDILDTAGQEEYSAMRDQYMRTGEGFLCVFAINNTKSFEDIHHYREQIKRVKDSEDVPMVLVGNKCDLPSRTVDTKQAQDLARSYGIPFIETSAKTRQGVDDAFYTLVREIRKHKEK
Sequence of KRAS G12C (P62937 whole entry): as the sequence (P62937 whole entry) above
Sequence of KRAS G13C (P01116 other isoform, or with tags, fused parts or gaps G13C): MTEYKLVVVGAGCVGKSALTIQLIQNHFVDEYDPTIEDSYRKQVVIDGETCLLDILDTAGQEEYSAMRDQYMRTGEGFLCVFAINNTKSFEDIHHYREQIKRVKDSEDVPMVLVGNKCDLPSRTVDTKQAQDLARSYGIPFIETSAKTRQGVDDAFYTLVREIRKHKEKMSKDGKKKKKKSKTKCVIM
Sequence of KRAS G13C (P62937 whole entry): as the sequence (P62937 whole entry) above
Sequence of KRAS G12D (P01116 other isoform, or with tags, fused parts or gaps G12D): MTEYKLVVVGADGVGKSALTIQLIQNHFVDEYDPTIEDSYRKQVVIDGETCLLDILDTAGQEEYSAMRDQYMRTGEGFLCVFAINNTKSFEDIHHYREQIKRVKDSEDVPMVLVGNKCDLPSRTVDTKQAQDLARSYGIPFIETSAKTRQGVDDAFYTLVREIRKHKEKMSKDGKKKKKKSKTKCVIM
Sequence of KRAS G12D (P62937 whole entry): as the sequence (P62937 whole entry) above
Sequence of KRAS G12V (P01116 other isoform, or with tags, fused parts or gaps G12V): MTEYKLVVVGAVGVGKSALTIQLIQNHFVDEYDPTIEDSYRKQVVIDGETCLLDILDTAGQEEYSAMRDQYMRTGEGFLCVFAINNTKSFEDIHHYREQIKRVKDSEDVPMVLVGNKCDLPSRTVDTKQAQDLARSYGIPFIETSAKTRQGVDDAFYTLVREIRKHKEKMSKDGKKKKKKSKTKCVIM
Sequence of KRAS G12V (P62937 whole entry): as the sequence (P62937 whole entry) above
Sequence of KRAS G13D (P01116 other isoform, or with tags, fused parts or gaps G13D): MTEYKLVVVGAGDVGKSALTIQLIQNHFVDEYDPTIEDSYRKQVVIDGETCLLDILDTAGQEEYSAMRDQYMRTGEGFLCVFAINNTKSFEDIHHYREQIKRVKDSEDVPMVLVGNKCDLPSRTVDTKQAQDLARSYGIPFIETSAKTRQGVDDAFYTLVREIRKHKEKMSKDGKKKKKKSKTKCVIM
Sequence of KRAS G13D (P62937 whole entry): as the sequence (P62937 whole entry) above
Sequence of KRAS WT (P01116 other isoform, or with tags, fused parts or gaps): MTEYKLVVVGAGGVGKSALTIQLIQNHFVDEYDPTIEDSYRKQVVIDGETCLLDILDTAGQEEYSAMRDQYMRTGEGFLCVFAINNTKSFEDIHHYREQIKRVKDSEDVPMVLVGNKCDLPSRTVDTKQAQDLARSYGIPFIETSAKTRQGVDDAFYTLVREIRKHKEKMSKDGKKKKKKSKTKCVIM
Sequence of KRAS WT (P62937 whole entry): as the sequence (P62937 whole entry) above

SMILES	IC50 (KRAS G13D) [nM]	IC50 (KRAS G12D) [nM]	IC50 (KRAS G12V) [nM]	IC50 (KRAS G13C) [nM]	IC50 (NRAS G12C) [nM]	IC50 (KRAS WT) [nM]	IC50 (KRAS G12S) [nM]	IC50 (KRAS G12C) [nM]	IC50 [1] [nM]	IC50 [2] [nM]	IC50 (NCI-H358 (K-Ras G12C)) [nM]
CCn1c(-c2cccnc2[C@H](C)OC)c2c3cc(ccc31)-c1csc(n1)C[C@H](NC(=O)[C@H](C(C)C)N1C[C@@H](c3ccccc3)CC1=O)C(=O)N1CCC[C@H](N1)C(=O)OCC(C)(C)C2 (single isomer, unassigned) [Compound A544]	1000 to 10000	1000 to 10000	1000 to 10000	100 to 1000	100 to 1000	1000 to 10000	1000 to 10000	100 to 1000	100 to 1000	100 to 1000	–
CCn1c(-c2cccnc2[C@H](C)OC)c2c3cc(ccc31)-c1cc(O)cc(c1)C[C@H](NC(=O)[C@H](C(C)C)N(C)C(=O)[C@H]1CCN(C(C)=O)C1)C(=O)N1CCC[C@H](N1)C(=O)OCC(C)(C)C2 [Compound A5]	100 to 1000	100 to 1000	10 to 100	100 to 1000	10 to 100	100 to 1000	10 to 100	10 to 100	100 to 1000	100 to 1000	10 to 100
CCn1c(-c2cccnc2[C@H](C)OC)c2c3cc(ccc31)-c1cccc(c1)C[C@H](NC(=O)[C@H](C(C)C)N(C)C(C)=O)C(=O)N1CCC[C@H](N1)C(=O)OCC(C)(C)C2 [Compound A61]	1000 to 10000	> 10000	1000 to 10000	1000 to 10000	1000 to 10000	1000 to 10000	1000 to 10000	1000 to 10000	1000 to 10000	1000 to 10000	–
CCn1c(-c2cccnc2[C@H](C)OC)c2c3cc(ccc31)-c1csc(n1)C[C@H](NC(=O)[C@H](C(C)C)N(C)C(=O)[C@H]1CCN(C(=O)CN(C)C)C1)C(=O)N1CCC[C@H](N1)C(=O)OCC(C)(C)C2 [Compound A97]	1000 to 10000	1000 to 10000	1000 to 10000	1000 to 10000	100 to 1000	1000 to 10000	1000 to 10000	100 to 1000	1000 to 10000	1000 to 10000	10 to 100
CCn1c(-c2cccnc2[C@H](C)OC)c2c3cc(ccc31)-c1cc(O)cc(c1)C[C@H](NC(=O)[C@@H](C(C)C)N(C)C(C)=O)C(=O)N1CCC[C@H](N1)C(=O)OCC(C)(C)C2 [Compound A256]	1000 to 10000	> 10000	1000 to 10000	100 to 1000	1000 to 10000	1000 to 10000	1000 to 10000	1000 to 10000	1000 to 10000	–	–
CCn1c(-c2cccnc2[C@H](C)OC)c2c3cc(ccc31)-c1csc(n1)C[C@H](NC(=O)C1(F)CCC1)C(=O)N1CCC[C@H](N1)C(=O)OCC(C)(C)C2 [Compound A361]	100 to 1000	1000 to 10000	100 to 1000	100 to 1000	100 to 1000	100 to 1000	100 to 1000	100 to 1000	100 to 1000	100 to 1000	–
CCn1c(-c2cccnc2[C@H](C)OC)c2c3cc(ccc31)-c1csc(n1)C[C@H](NC(=O)C1(F)CC1)C(=O)N1CCC[C@H](N1)C(=O)OCC(C)(C)C2 [Compound A362]	1000 to 10000	1000 to 10000	100 to 1000	100 to 1000	100 to 1000	100 to 1000	100 to 1000	100 to 1000	100 to 1000	100 to 1000	–
CCn1c(-c2cc(N3CCN(C)CC3)cnc2[C@H](C)OC)c2c3cc(ccc31)-c1csc(n1)C[C@H](NC(=O)[C@H](C(C)C)N(C)C(=O)[C@H]1CCCS1(=O)=O)C(=O)N1CCC[C@H](N1)C(=O)OCC(C)(C)C2 [Compound A439]	1000 to 10000	1000 to 10000	1000 to 10000	100 to 1000	100 to 1000	100 to 1000	1000 to 10000	100 to 1000	< 10	10 to 100	–
CCn1c(-c2cccnc2[C@H](C)OC)c2c3cc(ccc31)-c1csc(n1)C[C@H](NC(=O)[C@H](C(C)C)N(C)C(=O)N1CCC[C@@H]1CN(C)C)C(=O)N1CCC[C@H](N1)C(=O)OCC(C)(C)C2 [Compound A518]	100 to 1000	100 to 1000	1000 to 10000	100 to 1000	100 to 1000	100 to 1000	100 to 1000	100 to 1000	10 to 100	10 to 100	–
CCn1c(-c2cccnc2[C@H](C)OC)c2c3cc(ccc31)-c1csc(n1)C[C@H](NC(=O)[C@H](C(C)C)N(CCc1ccncc1)C1CC1)C(=O)N1CCC[C@H](N1)C(=O)OCC(C)(C)C2 [Compound A556]	1000 to 10000	1000 to 10000	1000 to 10000	100 to 1000	100 to 1000	100 to 1000	100 to 1000	100 to 1000	100 to 1000	100 to 1000	–
CCn1c(-c2cccnc2[C@H](C)OC)c2c3cc(ccc31)-c1csc(n1)C[C@H](NC(=O)[C@H](C(C)C)N(C)C(=O)N1CC[C@@H](F)[C@H](N)C1)C(=O)N1CCC[C@H](N1)C(=O)OCC(C)(C)C2 [Compound A559]	100 to 1000	100 to 1000	100 to 1000	100 to 1000	10 to 100	100 to 1000	100 to 1000	100 to 1000	10 to 100	100 to 1000	–
CCn1c(-c2cccnc2[C@H](C)OC)c2c3cc(ccc31)-c1csc(n1)C[C@H](NC(=O)[C@H](C(C)C)N(C)C(=O)[C@@H]1OCC[C@@H]1c1ccccc1)C(=O)N1CCC[C@H](N1)C(=O)OCC(C)(C)C2 [Compound A585]	1000 to 10000	1000 to 10000	100 to 1000	100 to 1000	100 to 1000	100 to 1000	100 to 1000	100 to 1000	10 to 100	100 to 1000	–
CCn1c(-c2cccnc2[C@H](C)OC)c2c3cc(ccc31)-c1cccc(c1)C[C@H](NC(=O)[C@H](C(C)C)N(C)C(=O)[C@@H]1OCC[C@@H]1c1ccccc1)C(=O)N1CCC[C@H](N1)C(=O)OCC(C)(C)C2 [Compound A586]	100 to 1000	100 to 1000	100 to 1000	100 to 1000	100 to 1000	100 to 1000	100 to 1000	10 to 100	100 to 1000	100 to 1000	–
CCn1c(-c2cccnc2[C@H](C)OC)c2c3cc(ccc31)-c1csc(n1)C[C@H](NC(=O)[C@H](C(C)C)N(C)C(=O)N1CCC[C@H]1c1ccccc1)C(=O)N1CCC[C@H](N1)C(=O)OCC(C)(C)C2 [Compound A599]	1000 to 10000	1000 to 10000	1000 to 10000	1000 to 10000	1000 to 10000	1000 to 10000	1000 to 10000	1000 to 10000	1000 to 10000	1000 to 10000	–
CCn1c(-c2cccnc2[C@H](C)OC)c2c3cc(ccc31)-c1cc(O)cc(c1)C[C@H](NC(=O)[C@H](C(C)C)N(C)C(=O)[C@]1(F)CCN(C(=O)OC)C1)C(=O)N1CCC[C@H](N1)C(=O)OCC(C)(C)C2 [Compound A616]	100 to 1000	100 to 1000	100 to 1000	10 to 100	10 to 100	10 to 100	100 to 1000	10 to 100	100 to 1000	100 to 1000	–
